In brackets after ≈: the same amount, converted by molar mass.
Columns and labels:
Assay type in all cases: cell-based
K. pneumoniae SR01358 = assay: MIC by microbroth dilution (CLSI), strain No. 2; conditions: K. pneumoniae SR01358, KPC-2, KPC-producing strain, cation-adjusted Mueller-Hinton broth; for MIC: Klebsiella pneumoniae, read-out: minimum inhibitory concentration (MIC), Strain No. 2
Protocol: (§1) The minimum inhibitory concentration (MIC) was measured by the microbroth dilution method in accordance with the procedures recommended by CLSI (Clinical and Laboratory Standards Institute) using 1×10^5 CFU/mL as an inoculum dose and a cation-adjusted Mueller-Hinton broth as a test medium.
(§2) The strains used are as described in the table below.

E. cloacae SR36276 = assay: MIC by microbroth dilution (CLSI), strain No. 5; conditions: E. cloacae SR36276, AmpC, highly AmpC-producing strain, ceftazidime-resistant, cefepime-sensitive, cation-adjusted Mueller-Hinton broth; for MIC: Enterobacter cloacae, read-out: minimum inhibitory concentration (MIC), Strain No. 5
Protocol: as §1, §2

K. pneumoniae SR01453 = assay: MIC by microbroth dilution (CLSI), strain No. 3; conditions: K. pneumoniae SR01453, NDM-1, MBL-producing strain, carbapenem-resistant, cation-adjusted Mueller-Hinton broth; for MIC: Klebsiella pneumoniae, read-out: minimum inhibitory concentration (MIC), Strain No. 3
Protocol: as §1, §2

E. cloacae ATCC13047 = assay: MIC by microbroth dilution (CLSI), strain No. 1; conditions: E. cloacae ATCC13047, AmpC, ceftazidime-resistant, cefepime-sensitive, cation-adjusted Mueller-Hinton broth; for MIC: Enterobacter cloacae, read-out: minimum inhibitory concentration (MIC), Strain No. 1
Protocol: as §1, §2

K. pneumoniae NCTC13443 = assay: MIC by microbroth dilution (CLSI), strain No. 4; conditions: K. pneumoniae NCTC13443, NDM-1, MBL-producing strain, carbapenem-resistant, cation-adjusted Mueller-Hinton broth; for MIC: Klebsiella pneumoniae, read-out: minimum inhibitory concentration (MIC), Strain No. 4
Protocol: as §1, §2

E. coli SR09613 = assay: MIC by microbroth dilution (CLSI), strain No. 6; conditions: for MIC: Escherichia coli, SR09613, read-out: minimum inhibitory concentration (MIC), Strain No. 6; for minimum inhibitory concentration (MIC), Strain No. 6: E. coli SR09613, CMY-2 type, plasmid AmpC-producing strain, ceftazidime-resistant, cefepime-sensitive, cation-adjusted Mueller-Hinton broth
Protocol: as §1, §2

E. coli SR09616 = assay: MIC by microbroth dilution (CLSI), strain No. 7; conditions: for MIC: Escherichia coli, SR09616, read-out: minimum inhibitory concentration (MIC), Strain No. 7; for minimum inhibitory concentration (MIC), Strain No. 7: E. coli SR09616, CMY-2 type, plasmid AmpC-producing strain, ceftazidime-resistant, cefepime-sensitive, cation-adjusted Mueller-Hinton broth
Protocol: as §1, §2

Compound	MIC (K. pneumoniae SR01358) [µg/mL]	MIC (E. cloacae SR36276) [µg/mL]	MIC (K. pneumoniae SR01453) [µg/mL]	MIC (E. cloacae ATCC13047) [µg/mL]	MIC (K. pneumoniae NCTC13443) [µg/mL]	MIC (E. coli SR09613) [µg/mL]	MIC (E. coli SR09616) [µg/mL]	minimum inhibitory concentration (MIC), Strain No. 5 (E. cloacae SR36276) [µg/mL]	minimum inhibitory concentration (MIC), Strain No. 3 (K. pneumoniae SR01453) [µg/mL]	minimum inhibitory concentration (MIC), Strain No. 6 (E. coli SR09613) [µg/mL]	minimum inhibitory concentration (MIC), Strain No. 1 (E. cloacae ATCC13047) [µg/mL]	minimum inhibitory concentration (MIC), Strain No. 4 (K. pneumoniae NCTC13443) [µg/mL]	minimum inhibitory concentration (MIC), Strain No. 7 (E. coli SR09616) [µg/mL]	minimum inhibitory concentration (MIC), Strain No. 2 (K. pneumoniae SR01358) [µg/mL]
Nc1nc(/C(=N/OCC(=O)O)C(=O)N[C@@H]2C(=O)N3[C@@H]2S(=O)(=O)C[C@@H]2CC(=O)O[C@@]23C(=O)O)cs1 [Compound I-003]	0.5 (≈ 0.966 µM)	1 (≈ 1.93 µM)	0.25 (≈ 0.483 µM)	0.25 (≈ 0.483 µM)	4 (≈ 7.73 µM)									
C[C@H](O/N=C(\C(=O)N[C@@H]1C(=O)N2[C@@H]1[S@@+]([O-])C[C@@H]1CC(=O)O[C@@]12C(=O)O)c1csc(N)n1)C(=O)O [Compound I-005]	0.5 (≈ 0.97 µM)	0.125 (≈ 0.242 µM)	0.125 (≈ 0.242 µM)	0.5 (≈ 0.97 µM)	1 (≈ 1.94 µM)									
CC(C)(O/N=C(\C(=O)N[C@@H]1C(=O)N2[C@@H]1[S@@+]([O-])C[C@@H]1CC(=O)O[C@@]12C(=O)[O-])c1csc(N)n1)C(=O)[O-].[Na+].[Na+] [Compound I-007]	0.5	0.25	0.5	0.25	2									
Nc1nc(/C(=N/OC2(C(=O)[O-])CC2)C(=O)N[C@@H]2C(=O)N3[C@@H]2[S@@+]([O-])C[C@@H]2CC(=O)O[C@@]23C(=O)[O-])cs1.[Na+].[Na+] [Compound I-015]	0.5	0.125	0.125	0.125	1									
CO/N=C(\C(=O)N[C@@H]1C(=O)N2[C@@H]1[S@@+]([O-])C[C@@H]1CC(=O)O[C@@]12C(=O)[O-])c1csc(N)n1.[Na+] [Compound I-023]	1	1	0.25	0.25	4									
Nc1nc(/C(=N/O[C@H](CO)C(=O)O)C(=O)N[C@@H]2C(=O)N3[C@@H]2[S@@+]([O-])C[C@@H]2CC(=O)O[C@@]23C(=O)O)cs1 [Compound I-026]	0.5 (≈ 0.941 µM)	0.125 (≈ 0.235 µM)	0.125 (≈ 0.235 µM)	0.125 (≈ 0.235 µM)	1 (≈ 1.88 µM)									
Nc1nc(/C(=N/O[C@@H](CO)C(=O)O)C(=O)N[C@@H]2C(=O)N3[C@@H]2[S@@+]([O-])C[C@@H]2CC(=O)O[C@@]23C(=O)O)cs1 [Compound I-027]	0.25 (≈ 0.47 µM)	≤ 0.031	0.063 (≈ 0.119 µM)	0.063 (≈ 0.119 µM)	1 (≈ 1.88 µM)									
Nc1nc(/C(=N/OC(F)C(=O)O)C(=O)N[C@@H]2C(=O)N3[C@@H]2[S@@+]([O-])C[C@@H]2CC(=O)O[C@@]23C(=O)O)cs1 (some centres unmarked) [Compound I-037]	1 (≈ 1.93 µM)	0.5 (≈ 0.963 µM)	0.25 (≈ 0.481 µM)	0.5 (≈ 0.963 µM)	8 (≈ 15.4 µM)									
N#CCO/N=C(\C(=O)N[C@@H]1C(=O)N2[C@@H]1[S@@+]([O-])C[C@@H]1CC(=O)O[C@@]12C(=O)O)c1csc(N)n1 [Compound I-039]		2 (≈ 4.15 µM)	0.125 (≈ 0.259 µM)	0.5 (≈ 1.04 µM)	4 (≈ 8.29 µM)	0.25 (≈ 0.518 µM)	1 (≈ 2.07 µM)							
C[n+]1ccc(CO/N=C(\C(=O)N[C@@H]2C(=O)N3[C@@H]2[S@@+]([O-])C[C@@H]2CC(=O)O[C@@]23C(=O)[O-])c2csc(N)n2)cc1 [Compound I-041]			0.5 (≈ 0.911 µM)	1 (≈ 1.82 µM)		0.5 (≈ 0.911 µM)	2 (≈ 3.65 µM)							
Nc1nc(/C(=N/OCc2cccnc2)C(=O)N[C@@H]2C(=O)N3[C@@H]2[S@@+]([O-])C[C@@H]2CC(=O)O[C@@]23C(=O)O)cs1 [Compound I-042]			2 (≈ 3.74 µM)			4 (≈ 7.48 µM)	4 (≈ 7.48 µM)							
Nc1nc(/C(=N/OC[C@@H](O)CO)C(=O)N[C@@H]2C(=O)N3[C@@H]2[S@@+]([O-])C[C@@H]2CC(=O)O[C@@]23C(=O)O)cs1 [Compound I-044]		1 (≈ 1.93 µM)	1 (≈ 1.93 µM)	0.5 (≈ 0.966 µM)	2 (≈ 3.86 µM)	0.25 (≈ 0.483 µM)	1 (≈ 1.93 µM)							
Nc1nc(/C(=N/OCS(=O)(=O)O)C(=O)N[C@@H]2C(=O)N3[C@@H]2[S@@+](O)C[C@@H]2CC(=O)O[C@@]23C(=O)O)cs1 [Compound I-047]								0.25	0.25	0.063	0.25	2	0.25	
CONC(=O)CO/N=C(\C(=O)N[C@@H]1C(=O)N2[C@@H]1[S+](O)C[C@@H]1CC(=O)O[C@@]12C(=O)O)c1csc(N)n1 (some centres unmarked) [Compound I-048]		1	0.125	0.25	4	0.125	0.5							
Nc1nc(/C(=N/OCC(=O)NO)C(=O)N[C@@H]2C(=O)N3[C@@H]2[S+](O)C[C@@H]2CC(=O)O[C@@]23C(=O)O)cs1 (some centres unmarked) [Compound I-049]								0.5	0.063	0.063	0.125	2	0.5	
Nc1nc(/C(=N/OC[C@H](O)CO)C(=O)N[C@@H]2C(=O)N3[C@@H]2[S@@+]([O-])C[C@@H]2CC(=O)O[C@@]23C(=O)O)cs1 [Compound I-050]		1 (≈ 1.93 µM)	0.5 (≈ 0.966 µM)	0.5 (≈ 0.966 µM)	4 (≈ 7.73 µM)	0.5 (≈ 0.966 µM)	4 (≈ 7.73 µM)							
Nc1nc(/C(=N/OC(CO)CO)C(=O)N[C@@H]2C(=O)N3[C@@H]2[S@@+]([O-])C[C@@H]2CC(=O)O[C@@]23C(=O)O)cs1 [Compound I-052]		0.125 (≈ 0.242 µM)	≤ 0.031	0.063 (≈ 0.122 µM)	0.5 (≈ 0.966 µM)	≤ 0.031	0.063 (≈ 0.122 µM)							
NC(=O)NCCO/N=C(\C(=O)N[C@@H]1C(=O)N2[C@@H]1[S@@+]([O-])C[C@@H]1CC(=O)O[C@@]12C(=O)O)c1csc(N)n1 [Compound I-056]		2 (≈ 3.78 µM)	0.5 (≈ 0.944 µM)	0.5 (≈ 0.944 µM)		0.5 (≈ 0.944 µM)	2 (≈ 3.78 µM)							
Nc1nc(/C(=N/OCCO)C(=O)N[C@@H]2C(=O)N3[C@@H]2[S@@+]([O-])C[C@@H]2CC(=O)O[C@@]23C(=O)[O-])cs1.[Na+] [Compound I-059]	0.5	0.25	0.063	0.063	1									
NC(=O)CO/N=C(\C(=O)N[C@@H]1C(=O)N2[C@@H]1[S@@+]([O-])C[C@@H]1CC(=O)O[C@@]12C(=O)[O-])c1csc(N)n1.[Na+] [Compound I-060]	0.5	0.5	0.125	0.125	4									
Nc1nc(/C(=N/OCCC(=O)O)C(=O)N[C@@H]2C(=O)N3[C@@H]2[S@@+]([O-])C[C@@H]2CC(=O)O[C@@]23C(=O)[O-])cs1.[Na+] [Compound I-061]								0.25	0.25		0.125	4		0.5
CO/N=C(\C(=O)N[C@@H]1C(=O)N2[C@@H]1S(=O)(=O)C[C@@H]1CC(=O)O[C@@]12C(=O)[O-])c1csc(N)n1.[Na+] [Compound I-070]	1	4	0.25	1	4									
NCCO/N=C(\C(=O)N[C@@H]1C(=O)N2[C@@H]1[S@@+]([O-])C[C@@H]1CC(=O)O[C@@]12C(=O)O)c1csc(N)n1 [Compound I-072]						4 (≈ 8.22 µM)	4 (≈ 8.22 µM)							

From US20180186814A1, “TRICYCLIC COMPOUND HAVING SULFINYL OR SULFONYL” (Shionogi & Co., Ltd., priority 2015, published 2018)
